Reference: patent US8779158B2, “Trisubstituted pyrazoles as acetylcholine receptor modulators” (Janssen Pharmaceutica NV, priority 2008, dated 2014)

Tests used:
[1] = molecular target: T1, hα7-wt nAChR-expressing GH4C1 cells (Homo sapiens, UniProt P36544); assay: Patch-clamp current recording (whole-cell voltage clamp), potentiation of the choline current and PAM type; assay type: cell-based; design: key: Type 0 compounds minimally enhance the effect size of the current elicited by 1 mM choline.; Type 1 compounds enhance the effect size of the current elicited by 1 mM choline but minimally alter the kinetics of the receptor.; Type 2 compounds enhance the effect size of the current elicited by 1 mM choline while reducing the rate and/or the extent of desensitization.; Type 3 compounds enhance the effect size of the current elicited by 1 mM choline. When tested at higher concentrations up to 10 μM they completely inhibit desensitization, in particular a 1 mM choline application of 250 milliseconds.; Type 4 compounds allow for an initial desensitization of the receptor followed by a re-opening of the receptor during agonist application; conditions: 1 mM choline
T1 construct: expressed in transfected cells
Procedure: The compounds of the present invention are classified as type 1-4, based on qualitative kinetic properties, as determined by whole-cell voltage-clamp recordings. This classification is based on the effect of an α7 PAM compound, as described hereinbefore, on the signal elicited by an agonist application. In particular, said agonist is choline at a concentration of 1 mM. In a preferred experimental setting, said α7 PAM compound and choline are simultaneously applied to the cell, as described hereinafter. Desensitization is defined as the closure of the receptor upon activation during the application of the agonist in whole-cell voltage-clamp electrophysiology measurements seen as the reduction of the […] current after initial activation by the agonist.
The definition of the PAM types 1-4 is described hereinafter: • Type 0 compounds minimally enhance the effect size of the current elicited by 1 mM choline. • Type 1 compounds enhance the effect size of the current elicited by 1 mM choline but minimally alter the kinetics of the receptor. In particular, the rate and the extent of desensitization, elicited by the agonist, is not affected. The compound-modulated response to 1 mM choline, therefore, is a close to linear scaling of the 1 mM choline response in absence of the α7 PAM compound. • Type 2 compounds enhance the effect size of the current elicited by 1 mM choline while reducing the rate and/or the extent of desensitization. • Type 3 compounds enhance the effect size of the current elicited by 1 mM choline. […] At low-potency concentrations of the α7 PAM compound, the agonist-induced activation, which is followed by desensitization, can still be separated from the compound-induced re-opening as an initial inward current-maximum. At higher potency concentrations of the α7 PAM compound, the re-opening occurs faster than the closure due to desensitization so that the initial current-maximum disappears.
A compound was considered to have interesting PAM-like activity when the potentiation of the peak current was at least 200% compared to the control choline response (=100%). Such compounds are classified as belonging to a particular PAM type in the Experimental Part. Compounds not meeting the condition are not classified as belonging to a particular PAM-type.
The compounds also have a potentiating effect on the response to choline when measured by whole-cell patch clamp electrophysiology in GH4C1 cells stably over-expressing the human wild-type α7 receptor.
Patch-Clamp Current Recording
Patch-clamp recording from mammalian cells has provided a powerful means of assessing the function of membrane-bound proteins thought to be subunits of ligand-gated ion channels. Activation of such proteins by endogenous or exogenous ligands cause opening of a pore associated with the receptor through which ions flow down their electrochemical gradient. In the case of the hα7-wt nAChR-expressing GH4C1 recombinant cell line the preferential permeability to calcium of this receptor means that calcium flows into the cell upon activation by ACh, choline and other nicotinic ligands giving rise to a calcium current. Since this receptor rapidly desensitizes in the presence of agonist it is important an application system is used which is capable of very rapid switching of solutions (<100 ms) to prevent partial or full desensitisation of receptor responses coincident with the time of agonist application. Consequently, a second convenient technique to assess the enhancement of nicotinic efficacy is patch-clamp recording from hα7-wt nAChR-expressing GH4C1 cells coupled with a rapid-application system.
• The external recording solution consisted of 152 mM NaCl, 5 mM KCl, 1 mM MgCl2, 1 mM Calcium, 10 mM HEPES; pH 7.3. […]

[2] = molecular target: T2, hα7-wt nAChR (Homo sapiens, UniProt P36544); assay: Ca2+ flux imaging (FDSS) (Protocol B), potentiation of the choline response; assay type: cell-based; conditions: Ca2+ assay as described in D.1; for EC50: "<5" = activity did not reach a top plateau at maximal concentration
T2 construct: expressed in transfected cells
Procedure: Ca^2+ Flux Imaging (FDSS) (Protocol B)
• Hanks buffered saline solution (HBSS, Invitrogen, Belgium), supplemented with 10 mM HEPES (Invitrogen, Belgium), CaCl2 to a final concentration of 5 mM, 0.1% Bovine serum albumin (Sigma-Aldrich NV, Belgium). b) Calcium-Sensitive Dye—Fluo-4AM • Fluo-4AM (Molecular Probes, USA) was dissolved in DMSO containing 10% Pluronic acid (Molecular Probes, USA) to give a stock solution which was diluted in assay buffer supplemented with 5 mM probenicid (Sigma, Aldrich NV, Belgium) to give a final concentration of 2 μM. c) 384-Well Plates • Black 384 well plate black/clear plates, PDL pre-coated (Corning, Incorporated, USA) d) Calcium Flux Measurement • A Functional drug screening system (FDSS, Hamamatsu) was used to measure intracellular free-calcium flux signals. Method
Monolayers of hα7-wt nAChR-expressing cells were grown in multi-well plates, in particular black-sided, transparent bottomed 384 well plates coated with poly-D-lysine for 24 hours prior to loading with a fluorescent calcium indicator, in a particular embodiment loading with fluo-4AM for up to 120 minutes.
PAM activity was detected in real time by applying the compounds to be tested to the loaded cells along with a α7 nicotinic receptor agonist during constant monitoring of cellular fluorescence in a FDSS. Compounds giving peak fluorescent responses greater than the response due to agonist alone, were considered to be α7 nAChR PAM's. In a particular embodiment, the α7 nicotinic receptor agonist was choline, a more particular embodiment choline applied at a sub-maximal concentration of 100 μM. In a further setting of the present invention the compounds to be tested were applied prior to the α7 nicotinic receptor agonist, in a particular embodiment up to 10 minutes prior to the agonist.
A control response to choline was calculated on each plate from the difference in peak in fluorescence in wells receiving either choline or assay buffer alone. Compounds of the present invention were tested at a concentration range from 0.01 μM to 30 μM. Compounds were considered to have an interesting activity when they potentiated the choline signal at least with 200% when tested at a concentration of 30 μM (the efficacy of 100 μM choline was defined as 100% in the absence of a PAM). An EC50 (or pEC50) was determined as a concentration relating to half the maximal effect, when a clear sigmoidal curve with top plateau was obtained.

T2 sequence (P36544 23-502): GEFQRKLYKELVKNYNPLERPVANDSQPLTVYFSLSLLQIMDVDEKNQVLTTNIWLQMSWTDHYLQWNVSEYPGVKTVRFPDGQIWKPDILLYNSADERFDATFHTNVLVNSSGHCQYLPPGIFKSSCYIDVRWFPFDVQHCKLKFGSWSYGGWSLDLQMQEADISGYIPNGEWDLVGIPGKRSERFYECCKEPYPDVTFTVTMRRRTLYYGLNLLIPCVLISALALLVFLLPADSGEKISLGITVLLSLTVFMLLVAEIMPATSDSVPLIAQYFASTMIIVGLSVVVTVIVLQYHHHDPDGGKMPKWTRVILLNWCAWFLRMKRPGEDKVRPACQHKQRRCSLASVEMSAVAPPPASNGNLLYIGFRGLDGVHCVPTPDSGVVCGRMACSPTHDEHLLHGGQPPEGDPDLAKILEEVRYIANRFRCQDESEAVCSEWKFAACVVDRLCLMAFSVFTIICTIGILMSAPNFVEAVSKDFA
T1 sequence (P36544 23-502): as above

| SMILES | PAM type [1] | EC50 [2] [nM] | Emax ([2]; read-out: % Efficacy) [%] | Emax at 30 µM ([2]; @ 30 μM, read-out: % Efficacy) [%] |
| --- | --- | --- | --- | --- |
| COc1cc(Nc2cc(-c3ccnc(C)c3)n(CC(=O)NC3CC3)n2)cc(C(F)(F)F)c1 [compound 104] | 3 | 2690 |  |  |
| CC[C@H](O)Cn1nc(Nc2ccc(F)c(F)c2F)cc1-c1ccnc(COC)c1 [compound 121] | 2 | 1070 |  |  |
| Cc1cc(-c2cc(Nc3ccc4c(c3)OC(F)(F)O4)nn2CC(=O)NCC2CC2)ccn1 [compound 95] | 2 | 234 |  |  |
| CNC(=O)Cn1nc(Nc2cccc(Cl)c2F)cc1-c1ccnc(COC)c1 [compound 106] | 2 | 1950 |  |  |
| CNC(=O)Cn1nc(Nc2cccc(OC(F)(F)F)c2)cc1-c1ccc2c(c1)OCCO2 [compound 77] | 4 | 417 |  |  |
| CCNC(=O)Cn1nc(Nc2cc(OC)cc(C(F)(F)F)c2)cc1-c1cc(C)nc(C)c1 [compound 140] | 2 | 1000 |  |  |
| CCOC(=O)Cn1nc(Nc2ccc(F)c(F)c2)cc1-c1ccc2c(c1)OCCO2 [compound 10, 3-[(3,4-difluorophenyl)amino]-5-(2,3-dihydro-1,4-benzodioxin-6-yl)-1H-pyrazole-1-acetic acid ethyl ester] | 2 | 245 |  |  |
| CNC(=O)Cn1nc(Nc2ccc3c(c2)OC(F)(F)O3)cc1-c1ccnc(COC)c1 [compound 112] | 4 | 1510 |  |  |
| CNC(=O)Cn1nc(Nc2ccc3c(c2)OC(F)(F)O3)cc1-c1ccnc(C)c1 [compound 92] | 2 | 1860 |  |  |
| Cc1cc(-c2cc(Nc3cccc(Cl)c3)nn2CC(=O)NCC2CC2)ccn1 [compound 163] | 2 | 324 |  |  |
| Cc1cc(-c2cc(Nc3cccc(Cl)c3)nn2CCC(=O)N(C)C)cc(C)n1 [compound 56] | 2 | 525 |  |  |
| Cc1cc(-c2cc(Nc3cccc(Cl)c3)nn2CC(=O)NC2CC2)ccn1 [compound 123] | 2 | 1000 |  |  |
| COCc1cc(-c2cc(Nc3cccc(Cl)c3)nn2CCC(=O)N(C)C)ccn1 [compound 149] | 4 | 437 |  |  |
| Cc1cc(-c2cc(Nc3cc(F)c(F)c(F)c3)nn2CCC(=O)N(C)C)ccn1 [compound 142] | 2 | 617 | 816 |  |
| CC[C@H](O)Cn1nc(Nc2cccc(Cl)c2F)cc1-c1ccnc(C)c1 [compound 118] | 0 | 1170 | 633 |  |
| COc1ccc(-c2cc(Nc3ccc(F)c(F)c3)nn2CCC(=O)N(C)C)c(Cl)c1 [compound 12] | 0 | 661 |  |  |
| CCNc1cc(-c2cc(Nc3ccc(F)c(F)c3)nn2C[C@@H](O)CC)ccn1 [compound 65] | 2 | 575 | 1000 |  |
| CCNc1cc(-c2cc(Nc3ccc(F)c(F)c3F)nn2C[C@@H](O)CC)ccn1 [compound 135] | 1 | 759 |  |  |
| CCNc1cc(-c2cc(Nc3ccc(F)c(C(F)(F)F)c3)nn2C[C@@H](O)CC)cc(C)n1 [compound 68] | 0 | 724 |  |  |

| SMILES | PAM type [1] | EC50 [2] [nM] | Emax ([2]; read-out: % Efficacy) [%] | Emax at 30 µM ([2]; @ 30 μM, read-out: % Efficacy) [%] |
| --- | --- | --- | --- | --- |
| CC[C@H](O)Cn1nc(Nc2cc(Cl)cc(OC)c2)cc1-c1ccnc(C)c1 [compound 122] | 1 | 1020 |  |  |
| Cc1cc(-c2cc(Nc3ccc4c(c3)OC(F)(F)O4)nn2CC(=O)NC2CCC2)cc(C)n1 [compound 158] | 1 | 363 | 509 |  |
| CCNC(=O)Cn1nc(Nc2ccc(F)c(F)c2)cc1-c1cc(C)nc(C)c1 [compound 151] | 2 | 550 | 749 |  |
| Cc1cc(-c2cc(Nc3cc(F)c(F)c(F)c3)nn2CC(=O)NC2CC2)cc(C)n1 [compound 172] |  | 186 | 393 |  |
| Cc1cc(-c2cc(Nc3cc(F)cc(Cl)c3)nn2CCC(=O)N(C)C)ccn1 [compound 41] |  | 389 |  |  |
| Cc1ccnc(-c2cc(Nc3ccc(F)c(F)c3)nn2C[C@H](C)O)c1 [compound 24] |  | 2140 | 300 |  |
| Cc1cc(-c2cc(Nc3cccc(Cl)c3F)nn2CC(=O)NC2CC2)cc(C)n1 [compound 169] |  | 302 | 577 |  |
| COc1cc(Nc2cc(-c3cc(C)nc(C)c3)n(CC(=O)NC3CCC3)n2)cc(C(F)(F)F)c1 [compound 162] |  | 437 | 750 |  |
| CC[C@H](O)Cn1nc(Nc2cc(OC)cc(C(F)(F)F)c2)cc1-c1ccnc(COC)c1 [compound 99] |  | 955 |  |  |
| CCNC(=O)Cn1nc(Nc2cc(F)c(F)c(F)c2)cc1-c1ccc2c(c1)OCCO2 [compound 78] |  | 302 |  |  |
| Cc1cc(-c2cc(Nc3cccc(C(F)(F)F)c3)nn2CC(=O)NC2CC2)cc(C)n1 [compound 150] |  | 525 | 568 |  |
| Cc1cc(-c2cc(Nc3ccc(F)c(F)c3F)nn2CC(=O)NC2CCC2)cc(C)n1 [compound 182] |  | 182 |  |  |
| CCNC(=O)Cn1nc(Nc2cccc(OC(F)(F)F)c2)cc1-c1cc(C)nc(C)c1 [compound 139] |  | 646 | 710 |  |
| CNC(=O)Cn1nc(Nc2ccc(F)c(C(F)(F)F)c2)cc1-c1ccnc(C)c1 [compound 34] |  | 3390 |  |  |
| Cc1cc(-c2cc(Nc3cccc(Cl)c3F)nn2CC(=O)NC2CCC2)cc(C)n1 [compound 175] |  | 126 | 462 |  |
| Cc1cc(-c2cc(Nc3ccc(F)c(C(F)(F)F)c3)nn2CC(=O)NC2CCC2)cc(C)n1 [compound 174] |  | 219 | 651 |  |
| CNC(=O)Cn1nc(Nc2cc(F)c(F)c(F)c2)cc1-c1cccnc1 [compound 15] |  | > 10000 |  | 832 |
| Cc1cc(-c2cc(Nc3ccc(F)c(F)c3)nn2CC(=O)NC2CC2)cc(C)n1 [compound 160] |  | 525 | 927 |  |
